According to the supplement of paper PMC8671470:

Each molecule was assayed on KG-1 (assay: cell viability (% survival relative to DMSO control, bortezomib = 0%); higher = less cytotoxic). Settings: 10 nM; 72 h.
Method in brief: (§1)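 Reported values are percent survival from duplicate wells, averaged. Fifteen myeloid leukaemia cell lines were treated in 384-well plates with compounds at 1, 10, 100, 1000 or 10000 nM for 72 h at 37 °C in 5% CO2. Signals from CellTiter-Glo luminescence were scaled with vehicle as 100% and a 10 µM positive control as 0%.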

Point of comparison: `C=C1NC(=O)c2cc(CN(C)c3ccc(C(=O)N[C@@H](CCC(=O)O)C(=O)O)s3)ccc2N1` [Raltitrexed], cell viability 103%. Against it:
- CC(C)(F)C[C@H](N[C@@H](c1ccc(-c2ccc(S(C)(=O)=O)cc2)cc1)C(F)(F)F)C(=O)NC1(C#N)CC1 [Odanacatib] — lower, 99.6%
- Nc1nc(O)c2c(CCc3ccc(C(=O)N[C@@H](CCC(=O)O)C(=O)O)cc3)c[nH]c2n1 [Pemetrexed] — lower, 93.5%
- CNC(=C[N+](=O)[O-])NCCSCc1ccc(CN(C)C)o1 [Ranitidine] — lower, 85.8%
- C#CCN[C@@H]1CCc2ccccc21 [Rasagiline] — higher, 116%
- NC(CCC(=O)NC(CSCc1ccc(Br)cc1)C(=O)NCC(=O)OC1CCCC1)C(=O)OC1CCCC1 (stereo not given) [S-para-Bromobenzylglutathione cyclopentyl diester] — lower, 102%
- COc1cc(C2Oc3cc(C4Oc5cc(O)cc(O)c5C(=O)C4O)ccc3OC2CO)ccc1O (stereo not given) [Silibinin] — higher, 104%
- Fc1ccc(CNc2ncnc3ccc(F)cc23)cc1 [Spautin 1] — lower, 98.5%
- Cn1c2cc(S(C)=O)sc2c2cnn(Cc3cccc(N)c3)c(=O)c21 (stereo not given) [TEPP-46] — lower, 99.9%
- CCCCCCCCCCCCCCOc1ccc(C(=O)O)o1 [TOFA] — the same, 103%
- CN1CC(=O)N2[C@H](c3ccc4c(c3)OCO4)c3[nH]c4ccccc4c3C[C@@H]2C1=O [Tadalafil] — lower, 98.4%

Same assay, conditions: 100 nM; 72 h

Point of comparison: `Fc1ccc(CNc2ncnc3ccc(F)cc23)cc1` [Spautin 1], cell viability 103%. Against it:
- CC(C)(F)C[C@H](N[C@@H](c1ccc(-c2ccc(S(C)(=O)=O)cc2)cc1)C(F)(F)F)C(=O)NC1(C#N)CC1 [Odanacatib] — lower, 95.6%
- Nc1nc(O)c2c(CCc3ccc(C(=O)N[C@@H](CCC(=O)O)C(=O)O)cc3)c[nH]c2n1 [Pemetrexed] — lower, 91.6%
- C=C1NC(=O)c2cc(CN(C)c3ccc(C(=O)N[C@@H](CCC(=O)O)C(=O)O)s3)ccc2N1 [Raltitrexed] — lower, 101%
- CNC(=C[N+](=O)[O-])NCCSCc1ccc(CN(C)C)o1 [Ranitidine] — higher, 126%
- C#CCN[C@@H]1CCc2ccccc21 [Rasagiline] — lower, 98.5%
- NC(CCC(=O)NC(CSCc1ccc(Br)cc1)C(=O)NCC(=O)OC1CCCC1)C(=O)OC1CCCC1 (stereo not given) [S-para-Bromobenzylglutathione cyclopentyl diester] — lower, 49.9%
- COc1cc(C2Oc3cc(C4Oc5cc(O)cc(O)c5C(=O)C4O)ccc3OC2CO)ccc1O (stereo not given) [Silibinin] — lower, 99.2%
- Cn1c2cc(S(C)=O)sc2c2cnn(Cc3cccc(N)c3)c(=O)c21 (stereo not given) [TEPP-46] — lower, 102%
- CCCCCCCCCCCCCCOc1ccc(C(=O)O)o1 [TOFA] — higher, 116%
- CN1CC(=O)N2[C@H](c3ccc4c(c3)OCO4)c3[nH]c4ccccc4c3C[C@@H]2C1=O [Tadalafil] — lower, 99.8%

Same assay, conditions: 1000 nM; 72 h

Point of comparison: `Cn1c2cc(S(C)=O)sc2c2cnn(Cc3cccc(N)c3)c(=O)c21` (stereo not given) [TEPP-46], cell viability 93.5%. Against it:
- CC(C)(F)C[C@H](N[C@@H](c1ccc(-c2ccc(S(C)(=O)=O)cc2)cc1)C(F)(F)F)C(=O)NC1(C#N)CC1 [Odanacatib] — higher, 107%
- Nc1nc(O)c2c(CCc3ccc(C(=O)N[C@@H](CCC(=O)O)C(=O)O)cc3)c[nH]c2n1 [Pemetrexed] — higher, 108%
- C=C1NC(=O)c2cc(CN(C)c3ccc(C(=O)N[C@@H](CCC(=O)O)C(=O)O)s3)ccc2N1 [Raltitrexed] — higher, 100%
- CNC(=C[N+](=O)[O-])NCCSCc1ccc(CN(C)C)o1 [Ranitidine] — higher, 174%
- C#CCN[C@@H]1CCc2ccccc21 [Rasagiline] — lower, 89.8%
- NC(CCC(=O)NC(CSCc1ccc(Br)cc1)C(=O)NCC(=O)OC1CCCC1)C(=O)OC1CCCC1 (stereo not given) [S-para-Bromobenzylglutathione cyclopentyl diester] — lower, 43.4%
- COc1cc(C2Oc3cc(C4Oc5cc(O)cc(O)c5C(=O)C4O)ccc3OC2CO)ccc1O (stereo not given) [Silibinin] — higher, 94.3%
- Fc1ccc(CNc2ncnc3ccc(F)cc23)cc1 [Spautin 1] — lower, 66.8%
- CCCCCCCCCCCCCCOc1ccc(C(=O)O)o1 [TOFA] — higher, 97.5%
- CN1CC(=O)N2[C@H](c3ccc4c(c3)OCO4)c3[nH]c4ccccc4c3C[C@@H]2C1=O [Tadalafil] — higher, 103%

Same assay, conditions: 10000 nM; 72 h

Point of comparison: `C=C1NC(=O)c2cc(CN(C)c3ccc(C(=O)N[C@@H](CCC(=O)O)C(=O)O)s3)ccc2N1` [Raltitrexed], cell viability 102%. Against it:
- CC(C)(F)C[C@H](N[C@@H](c1ccc(-c2ccc(S(C)(=O)=O)cc2)cc1)C(F)(F)F)C(=O)NC1(C#N)CC1 [Odanacatib] — higher, 103%
- Nc1nc(O)c2c(CCc3ccc(C(=O)N[C@@H](CCC(=O)O)C(=O)O)cc3)c[nH]c2n1 [Pemetrexed] — the same, 102%
- CNC(=C[N+](=O)[O-])NCCSCc1ccc(CN(C)C)o1 [Ranitidine] — higher, 163%
- C#CCN[C@@H]1CCc2ccccc21 [Rasagiline] — higher, 114%
- NC(CCC(=O)NC(CSCc1ccc(Br)cc1)C(=O)NCC(=O)OC1CCCC1)C(=O)OC1CCCC1 (stereo not given) [S-para-Bromobenzylglutathione cyclopentyl diester] — higher, 105%
- COc1cc(C2Oc3cc(C4Oc5cc(O)cc(O)c5C(=O)C4O)ccc3OC2CO)ccc1O (stereo not given) [Silibinin] — lower, 93.8%
- Fc1ccc(CNc2ncnc3ccc(F)cc23)cc1 [Spautin 1] — lower, 32.6%
- Cn1c2cc(S(C)=O)sc2c2cnn(Cc3cccc(N)c3)c(=O)c21 (stereo not given) [TEPP-46] — lower, 85.1%
- CCCCCCCCCCCCCCOc1ccc(C(=O)O)o1 [TOFA] — lower, 93.2%
- CN1CC(=O)N2[C@H](c3ccc4c(c3)OCO4)c3[nH]c4ccccc4c3C[C@@H]2C1=O [Tadalafil] — lower, 99.4%

What follows are molecules tested on KU-812 in the same assay as above. Settings: 1 nM; 72 h.
Method in brief: as §1

Point of comparison: `CN1CC(=O)N2[C@H](c3ccc4c(c3)OCO4)c3[nH]c4ccccc4c3C[C@@H]2C1=O` [Tadalafil], cell viability 98.8%. Against it:
- CC(C)(F)C[C@H](N[C@@H](c1ccc(-c2ccc(S(C)(=O)=O)cc2)cc1)C(F)(F)F)C(=O)NC1(C#N)CC1 [Odanacatib] — lower, 94.8%
- Nc1nc(O)c2c(CCc3ccc(C(=O)N[C@@H](CCC(=O)O)C(=O)O)cc3)c[nH]c2n1 [Pemetrexed] — higher, 98.9%
- C=C1NC(=O)c2cc(CN(C)c3ccc(C(=O)N[C@@H](CCC(=O)O)C(=O)O)s3)ccc2N1 [Raltitrexed] — lower, 94.1%
- CNC(=C[N+](=O)[O-])NCCSCc1ccc(CN(C)C)o1 [Ranitidine] — higher, 109%
- C#CCN[C@@H]1CCc2ccccc21 [Rasagiline] — lower, 94.1%
- NC(CCC(=O)NC(CSCc1ccc(Br)cc1)C(=O)NCC(=O)OC1CCCC1)C(=O)OC1CCCC1 (stereo not given) [S-para-Bromobenzylglutathione cyclopentyl diester] — lower, 90.1%
- COc1cc(C2Oc3cc(C4Oc5cc(O)cc(O)c5C(=O)C4O)ccc3OC2CO)ccc1O (stereo not given) [Silibinin] — lower, 96.5%
- Fc1ccc(CNc2ncnc3ccc(F)cc23)cc1 [Spautin 1] — lower, 96.8%
- Cn1c2cc(S(C)=O)sc2c2cnn(Cc3cccc(N)c3)c(=O)c21 (stereo not given) [TEPP-46] — lower, 94.7%
- CCCCCCCCCCCCCCOc1ccc(C(=O)O)o1 [TOFA] — higher, 109%

Same assay, conditions: 10 nM; 72 h

Point of comparison: `C#CCN[C@@H]1CCc2ccccc21` [Rasagiline], cell viability 104%. Against it:
- CC(C)(F)C[C@H](N[C@@H](c1ccc(-c2ccc(S(C)(=O)=O)cc2)cc1)C(F)(F)F)C(=O)NC1(C#N)CC1 [Odanacatib] — lower, 87.9%
- Nc1nc(O)c2c(CCc3ccc(C(=O)N[C@@H](CCC(=O)O)C(=O)O)cc3)c[nH]c2n1 [Pemetrexed] — lower, 102%
- C=C1NC(=O)c2cc(CN(C)c3ccc(C(=O)N[C@@H](CCC(=O)O)C(=O)O)s3)ccc2N1 [Raltitrexed] — the same, 104%
- CNC(=C[N+](=O)[O-])NCCSCc1ccc(CN(C)C)o1 [Ranitidine] — lower, 101%
- NC(CCC(=O)NC(CSCc1ccc(Br)cc1)C(=O)NCC(=O)OC1CCCC1)C(=O)OC1CCCC1 (stereo not given) [S-para-Bromobenzylglutathione cyclopentyl diester] — lower, 97.2%
- COc1cc(C2Oc3cc(C4Oc5cc(O)cc(O)c5C(=O)C4O)ccc3OC2CO)ccc1O (stereo not given) [Silibinin] — lower, 93.1%
- Fc1ccc(CNc2ncnc3ccc(F)cc23)cc1 [Spautin 1] — lower, 96.3%
- Cn1c2cc(S(C)=O)sc2c2cnn(Cc3cccc(N)c3)c(=O)c21 (stereo not given) [TEPP-46] — lower, 102%
- CCCCCCCCCCCCCCOc1ccc(C(=O)O)o1 [TOFA] — lower, 95%
